In patent US11213522B2, “Autoimmune-induced glutamatergic receptor dysfunction methods and treatments” (SARAH HERZOG MEMORIAL HOSPITAL EZRAT NASHIM ASSOCIATION, priority 2013, dated 2022):

Tests used:
[1] = test system: patient positive for anti-NR1 NMDAR antibodies; assay: Quality of Life Scale (QLS), D-serine clinical trial; format: in vivo, human; settings: for QLS Symptoms/side-effects: week 0 score 15.63; for QLS Motivation/energy: week 0 score 42.86; for QLS Psychosocial: week 0 score 60
Description: (§1) Out of the seventeen patients that entered the study, the serum of one patient was strongly positive at both serum sample dilutions for the presence of both IgG and IgM classes of anti-NR1 NMDAR antibodies. The patient was a single person having a diagnosis of schizophrenia according to DSM-IV-R criteria (American Psychiatric Association, 2000 Diagnostic and Statistical Manual of Mental Disorders-(DSM-IV-TR), 4th edition. American Psychiatric Association Washington D.C. (Text Revision)). There was no history of mental disorder in the patient's family. The patient had completed post-high school studies and had worked as a secretary. After a period of continuous headaches, for which no organic basis had been found, they had abruptly developed an acute psychosis characterized by grandiose and paranoid delusions, mystical thinking, […] affect and agitation, They had been hospitalized in a psychiatric hospital and underwent treatment with antipsychotic drugs and electroconvulsive therapy with only partial response. The patient had never returned to their previous functional and except for short attempts at living in the community, has been hospitalized ever since. They have been refractory to treatment with various classes of antipsychotic drugs, was not diagnosed with any medical or neurological disorder and was maintained on sulpiride 50 mg/day, citalopram 40 mg/day, lorazepam 1 mg/day and promethazine 50 mg/day. […] DSR is a naturally occurring amino acid that acts in vivo as an obligatory co-agonist at the glycine modulatory site associated with NMDAR. […] Both acute and chronic administration of 1-2 g DSR in humans is known to result in ≥100 times increases in DSR serum levels (Kantrowitz et al., 2010, Schizophr Res121:125-30; Heresco-Levy et al., 2005, Biol Psychiatry 57:577-85). The trial consisted of two periods, starting with a 2 week lead-in/stabilization period (-2-0) following which the patient was entered in the second period of the study which consisted of a 6 week (0-6), open-label, fixed dose therapy phase. During this phase, the patient received adjuvant treatment with DSR, whose dose was increased from 1500 mg/day (week 1) to 2000 mg/day (weeks 2 and 3) to 3000 mg/day (weeks 4 and 5) and to 4000 mg/day (week 6). The doses of the ongoing medication received by the patient remained fixed throughout the study and no changes in medication were performed. The assessment procedures used in the study included clinical and neurocognitive examinations. Motor and psychiatric symptoms as well as side-effects were rated biweekly throughout the study. The following instruments were used: 1) Positive and Negative Syndrome Scale (PANSS) (Kay et al., 1987, Positive and Negative Syndrome Scale (PANSS) rating manual. San Rafael California: Social and Behavioral Sciences Documents); 2) Quality of Life Scale (QLS) (Wilkinson et al., 2000, Self-report quality of life measure for people with schizophrenia: the SQLS. Br J Psychiatry 177:42-6); 3) Abnormal Involuntary Movement Scale (AIMS) (Guy, 1976, ECDEU Assessment Manual for Psychopharmacology-Revised. Rockville, Md.: US Dept. of Health, Education and Welfare); 4) Simpson Angus Scale for Extrapyramidal Symptoms (SAS) (Simpson and Angus, 1970, Acta Psychiatr Scand Suppl. 212:11-9); and 5) Udvalg for […] Undersogelser (UKU) Side Effect Rating Scale (Lingjaerde, et al., 1987 Acta Psychiatr Scand Suppl 334:1-100). In conjunction with UKU ratings, patient's vital signs and body weight were monitored throughout the study.

[2] = test system: patient positive for anti-NR1 NMDAR antibodies; assay: Positive and Negative Syndrome Scale (PANSS), D-serine clinical trial; format: in vivo, human; settings: for PANSS Negative: week 0 score 18; for PANSS Positive: week 0 score 24; for PANSS General: week 0 score 55; for PANSS Total: week 0 score 97
Description: as §1

[3] = test system: patient positive for anti-NR1 NMDAR antibodies; assay: Abnormal Involuntary Movement Scale (AIMS), D-serine clinical trial; format: in vivo, human; settings: for AIMS: week 0 score 1
Description: (§2) Out of the seventeen patients that entered the study, the serum of one patient was strongly positive at both serum sample dilutions for the presence of both IgG and IgM classes of anti-NR1 NMDAR antibodies. The patient was a single person having a diagnosis of schizophrenia according to DSM-IV-R criteria (American Psychiatric Association, 2000 Diagnostic and Statistical Manual of Mental Disorders-(DSM-IV-TR), 4th edition. American Psychiatric Association Washington D.C. (Text Revision)). There was no history of mental disorder in the patient's family. The patient had completed post-high school studies and had worked as a secretary. After a period of continuous headaches, for which no organic basis had been found, they had abruptly developed an acute psychosis characterized by grandiose and paranoid delusions, mystical thinking, […] affect and agitation, They had been hospitalized in a psychiatric hospital and underwent treatment with antipsychotic drugs and electroconvulsive therapy with only partial response. The patient had never returned to their previous functional and except for short attempts at living in the community, has been hospitalized ever since. They have been refractory to treatment with various classes of antipsychotic drugs, was not diagnosed with any medical or neurological disorder and was maintained on sulpiride 50 mg/day, citalopram 40 mg/day, lorazepam 1 mg/day and promethazine 50 mg/day. […] DSR is a naturally occurring amino acid that acts in vivo as an obligatory co-agonist at the glycine modulatory site associated with NMDAR. […] Both acute and chronic administration of 1-2 g DSR in humans is known to result in ≥100 times increases in DSR serum levels (Kantrowitz et al., 2010, Schizophr Res121:125-30; Heresco-Levy et al., 2005, Biol Psychiatry 57:577-85). The trial consisted of two periods, starting with a 2 week lead-in/stabilization period (-2-0) following which the patient was entered in the second period of the study which consisted of a 6 week (0-6), open-label, fixed dose therapy phase. During this phase, the patient received adjuvant treatment with DSR, whose dose was increased from 1500 mg/day (week 1) to 2000 mg/day (weeks 2 and 3) to 3000 mg/day (weeks 4 and 5) and to 4000 mg/day (week 6). The doses of the ongoing medication received by the patient remained fixed throughout the study and no changes in medication were performed. The assessment procedures used in the study included clinical and neurocognitive examinations. Motor and psychiatric symptoms as well as side-effects were rated biweekly throughout the study. […] In conjunction with UKU ratings, patient's vital signs and body weight were monitored throughout the study.

[4] = test system: patient positive for anti-NR1 NMDAR antibodies; assay: Simpson Angus Scale for Extrapyramidal Symptoms (SAS), D-serine clinical trial; format: in vivo, human; settings: week 0 score 5
Description: as §2, with “57:577-85).” for “57:577-85). The trial consisted of two periods, starting with a 2 week lead-in/stabilization period (-2-0) following which the patient was entered in the second period of the study which consisted of a 6 week (0-6), open-label, fixed dose therapy phase. During this phase, the patient received adjuvant treatment with DSR, whose dose was increased from 1500 mg/day (week 1) to 2000 mg/day (weeks 2 and 3) to 3000 mg/day (weeks 4 and 5) and to 4000 mg/day (week 6). The doses of the ongoing medication received by the patient remained fixed throughout the study and no changes in medication were performed. The assessment procedures used in the study included clinical and neurocognitive examinations. Motor and psychiatric symptoms as well as side-effects were rated biweekly throughout the study.”

[5] = doses of ≤4 g/day; cited from earlier work

## N[C@H](CO)C(=O)O [D-serine]
[1]; during treatment with DSR
  Quality of life of the patient: improved considerably
[1]; end of the 6 week treatment period vs baseline
  Reduction in reported symptoms and side effects (QLS): ~3 times
[1]; study week 2
  QLS Symptoms/side-effects: 9.38
  QLS Motivation/energy: 42.86
[1]; study week 2 of adjuvant D-serine
  QLS Psychosocial: 55
[1]; study week 4
  QLS Symptoms/side-effects: 9.38
  QLS Motivation/energy: 42.86
[1]; study week 4 of adjuvant D-serine
  QLS Psychosocial: 50
[1]; study week 6
  QLS Symptoms/side-effects: 3.13
  QLS Motivation/energy: 42.86
[1]; study week 6 of adjuvant D-serine
  QLS Psychosocial: 38.33
[2]; during treatment with DSR
  PANSS positive, negative and general psychopathology symptom domains: improved
[2]; end of study vs baseline total score of 97
  Total PANSS score lower by the end of the study: 17%
[2]; study week 2
  PANSS Negative: 19
  PANSS Positive: 21
  PANSS General: 54
  PANSS Total: 96
[2]; study week 4
  PANSS Negative: 17
  PANSS Positive: 21
  PANSS General: 51
  PANSS Total: 89
[2]; study week 6
  PANSS Negative: 16
  PANSS Positive: 19
  PANSS General: 45
  PANSS Total: 80
[3]; following DSR administration, minimal at baseline
  Motor symptomatology, as measured by AIMS and SAS scores: improvements were registered
[3]; study week 2
  AIMS: 0
[3]; study week 4
  AIMS: 0
[3]; study week 6
  AIMS: 0
[4]; study week 2
  SAS: 4
[4]; study week 4
  SAS: 4
[4]; study week 6
  SAS: 3
[5]
  Adverse events: No significant adverse events
